From patent EP0564248A1, “N-(2-hydroxyethyl)-N-bis(methylenephosphonic acid) and corresponding N-oxide thereof for high pH scale control” (Calgon Corporation, priority 1992, dated 1993) come the findings set out here.

This test in a line: CaCO3 scale inhibition at pH 9 and 300X calcite saturation (% inhibition by calcium titration, Schwarzenbach method).

Method: PROCEDURE: Scaling water containing 250 mg/L of CO (-2)/(3) [formula] and 600 mg/L of alkalinity at a pH of 9.0 and 55°C was used to evaluate scale inhibition performance of test solutions over a 24 hr period. Test solutions were analyzed by withdrawing 10 g of test solution and adding it to the appropriate container through a 0.2 µ filter, titrating for calcium, and calculating % inhibition by the Schwarzenbach method.

Take `O=P(O)(O)CN(CCO)CP(=O)(O)O` [Sample No. 1, N-(2-hydroxyethyl)-N-bis(methylenephosphonic acid)]: the scale inhibition reads like this: (10% Excess Ca/Alk, 25ppm) 67.8%; (10% Excess Ca/Alk, 50ppm) 85.6%; (60°C, 50ppm) 82.6%; (pH 9, 300X CaCO₃, 50ppm, 24hrs) 90.8%; (pH 9, 300X CaCO₃, 50ppm, 4 days) 87.5%.
